{"source": "ChEMBL document CHEMBL1268989", "about": "“Design, syntheses, and SAR of 2,8-diazaspiro[4.5]decanones as T-type calcium channel antagonists” (Bioorg Med Chem Lett, 2010)", "key": {"[1]": {"assay": "Selectivity for T-type calcium channel subunit alpha-1H over L-type calcium channel subunit alpha-1C"}, "[2]": {"target": "Voltage-dependent T-type calcium channel subunit alpha-1H (Homo sapiens) (UniProt O95180)", "sequence (O95180 whole entry)": "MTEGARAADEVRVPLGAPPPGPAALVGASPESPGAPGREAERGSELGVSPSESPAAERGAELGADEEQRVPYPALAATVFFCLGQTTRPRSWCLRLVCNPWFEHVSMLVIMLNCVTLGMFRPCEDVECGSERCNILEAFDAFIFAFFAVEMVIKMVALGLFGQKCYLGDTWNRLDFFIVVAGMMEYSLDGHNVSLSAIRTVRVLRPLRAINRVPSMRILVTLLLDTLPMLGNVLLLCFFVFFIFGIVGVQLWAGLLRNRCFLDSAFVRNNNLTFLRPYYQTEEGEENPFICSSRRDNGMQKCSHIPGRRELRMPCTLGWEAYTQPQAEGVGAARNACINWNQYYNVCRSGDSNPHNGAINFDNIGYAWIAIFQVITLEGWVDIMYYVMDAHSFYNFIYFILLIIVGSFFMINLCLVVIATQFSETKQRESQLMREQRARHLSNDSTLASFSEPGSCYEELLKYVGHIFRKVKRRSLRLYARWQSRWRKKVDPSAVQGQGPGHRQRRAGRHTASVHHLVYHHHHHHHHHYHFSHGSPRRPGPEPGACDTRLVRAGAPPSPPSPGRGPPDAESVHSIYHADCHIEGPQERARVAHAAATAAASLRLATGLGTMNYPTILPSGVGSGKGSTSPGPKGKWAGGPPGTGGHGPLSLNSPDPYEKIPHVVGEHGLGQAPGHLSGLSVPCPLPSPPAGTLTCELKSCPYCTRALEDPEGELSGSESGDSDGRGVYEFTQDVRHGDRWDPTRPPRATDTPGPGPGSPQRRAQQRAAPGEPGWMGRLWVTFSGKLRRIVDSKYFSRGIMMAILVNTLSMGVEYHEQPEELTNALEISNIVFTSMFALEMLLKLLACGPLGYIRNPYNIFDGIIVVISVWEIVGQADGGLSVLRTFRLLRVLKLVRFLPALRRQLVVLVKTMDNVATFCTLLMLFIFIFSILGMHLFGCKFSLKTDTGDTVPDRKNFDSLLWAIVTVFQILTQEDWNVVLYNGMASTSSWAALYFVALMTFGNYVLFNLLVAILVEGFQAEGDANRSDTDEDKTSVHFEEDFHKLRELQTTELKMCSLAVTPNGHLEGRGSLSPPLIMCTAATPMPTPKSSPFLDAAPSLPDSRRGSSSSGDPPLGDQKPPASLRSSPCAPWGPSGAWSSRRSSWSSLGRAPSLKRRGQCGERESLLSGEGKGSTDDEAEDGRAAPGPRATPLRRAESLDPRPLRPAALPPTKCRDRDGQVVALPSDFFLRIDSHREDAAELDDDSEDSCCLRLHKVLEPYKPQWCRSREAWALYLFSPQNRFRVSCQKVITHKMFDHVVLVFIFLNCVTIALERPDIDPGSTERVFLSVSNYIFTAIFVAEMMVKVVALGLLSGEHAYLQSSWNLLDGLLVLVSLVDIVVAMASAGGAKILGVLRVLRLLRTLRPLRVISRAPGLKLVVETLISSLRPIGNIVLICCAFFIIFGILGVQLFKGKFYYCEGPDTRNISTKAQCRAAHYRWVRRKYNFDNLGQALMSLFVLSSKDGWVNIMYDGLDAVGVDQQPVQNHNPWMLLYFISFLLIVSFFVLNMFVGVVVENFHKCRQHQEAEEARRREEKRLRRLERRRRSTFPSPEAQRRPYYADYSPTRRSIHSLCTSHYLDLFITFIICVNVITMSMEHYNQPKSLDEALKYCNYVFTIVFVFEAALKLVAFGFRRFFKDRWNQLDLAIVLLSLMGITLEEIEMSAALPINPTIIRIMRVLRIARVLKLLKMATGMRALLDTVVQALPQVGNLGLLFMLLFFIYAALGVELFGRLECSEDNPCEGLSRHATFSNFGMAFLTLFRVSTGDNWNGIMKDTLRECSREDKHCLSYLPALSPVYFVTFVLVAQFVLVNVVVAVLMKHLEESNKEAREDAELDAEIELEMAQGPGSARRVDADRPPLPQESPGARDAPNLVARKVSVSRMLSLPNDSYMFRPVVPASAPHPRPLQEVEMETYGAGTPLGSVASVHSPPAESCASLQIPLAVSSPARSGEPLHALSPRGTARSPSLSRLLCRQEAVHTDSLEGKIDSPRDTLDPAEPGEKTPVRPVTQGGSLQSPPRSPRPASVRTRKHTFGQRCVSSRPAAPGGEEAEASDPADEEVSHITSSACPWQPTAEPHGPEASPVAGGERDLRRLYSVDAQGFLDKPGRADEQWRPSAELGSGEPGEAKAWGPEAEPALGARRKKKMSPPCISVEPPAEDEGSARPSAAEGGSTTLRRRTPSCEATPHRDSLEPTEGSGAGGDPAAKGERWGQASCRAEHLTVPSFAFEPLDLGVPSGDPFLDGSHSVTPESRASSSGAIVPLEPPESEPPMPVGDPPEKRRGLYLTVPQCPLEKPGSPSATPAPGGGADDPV", "assay": "Antagonist activity against T-type calcium channel subunit alpha-1H assessed as inactivation of channel current at 0.03 uM by cell based patch clamp assay", "format": "functional"}, "[3]": {"target": "Voltage-dependent L-type calcium channel subunit alpha-1C (Homo sapiens) (UniProt Q13936)", "sequence (Q13936 whole entry, looked up)": "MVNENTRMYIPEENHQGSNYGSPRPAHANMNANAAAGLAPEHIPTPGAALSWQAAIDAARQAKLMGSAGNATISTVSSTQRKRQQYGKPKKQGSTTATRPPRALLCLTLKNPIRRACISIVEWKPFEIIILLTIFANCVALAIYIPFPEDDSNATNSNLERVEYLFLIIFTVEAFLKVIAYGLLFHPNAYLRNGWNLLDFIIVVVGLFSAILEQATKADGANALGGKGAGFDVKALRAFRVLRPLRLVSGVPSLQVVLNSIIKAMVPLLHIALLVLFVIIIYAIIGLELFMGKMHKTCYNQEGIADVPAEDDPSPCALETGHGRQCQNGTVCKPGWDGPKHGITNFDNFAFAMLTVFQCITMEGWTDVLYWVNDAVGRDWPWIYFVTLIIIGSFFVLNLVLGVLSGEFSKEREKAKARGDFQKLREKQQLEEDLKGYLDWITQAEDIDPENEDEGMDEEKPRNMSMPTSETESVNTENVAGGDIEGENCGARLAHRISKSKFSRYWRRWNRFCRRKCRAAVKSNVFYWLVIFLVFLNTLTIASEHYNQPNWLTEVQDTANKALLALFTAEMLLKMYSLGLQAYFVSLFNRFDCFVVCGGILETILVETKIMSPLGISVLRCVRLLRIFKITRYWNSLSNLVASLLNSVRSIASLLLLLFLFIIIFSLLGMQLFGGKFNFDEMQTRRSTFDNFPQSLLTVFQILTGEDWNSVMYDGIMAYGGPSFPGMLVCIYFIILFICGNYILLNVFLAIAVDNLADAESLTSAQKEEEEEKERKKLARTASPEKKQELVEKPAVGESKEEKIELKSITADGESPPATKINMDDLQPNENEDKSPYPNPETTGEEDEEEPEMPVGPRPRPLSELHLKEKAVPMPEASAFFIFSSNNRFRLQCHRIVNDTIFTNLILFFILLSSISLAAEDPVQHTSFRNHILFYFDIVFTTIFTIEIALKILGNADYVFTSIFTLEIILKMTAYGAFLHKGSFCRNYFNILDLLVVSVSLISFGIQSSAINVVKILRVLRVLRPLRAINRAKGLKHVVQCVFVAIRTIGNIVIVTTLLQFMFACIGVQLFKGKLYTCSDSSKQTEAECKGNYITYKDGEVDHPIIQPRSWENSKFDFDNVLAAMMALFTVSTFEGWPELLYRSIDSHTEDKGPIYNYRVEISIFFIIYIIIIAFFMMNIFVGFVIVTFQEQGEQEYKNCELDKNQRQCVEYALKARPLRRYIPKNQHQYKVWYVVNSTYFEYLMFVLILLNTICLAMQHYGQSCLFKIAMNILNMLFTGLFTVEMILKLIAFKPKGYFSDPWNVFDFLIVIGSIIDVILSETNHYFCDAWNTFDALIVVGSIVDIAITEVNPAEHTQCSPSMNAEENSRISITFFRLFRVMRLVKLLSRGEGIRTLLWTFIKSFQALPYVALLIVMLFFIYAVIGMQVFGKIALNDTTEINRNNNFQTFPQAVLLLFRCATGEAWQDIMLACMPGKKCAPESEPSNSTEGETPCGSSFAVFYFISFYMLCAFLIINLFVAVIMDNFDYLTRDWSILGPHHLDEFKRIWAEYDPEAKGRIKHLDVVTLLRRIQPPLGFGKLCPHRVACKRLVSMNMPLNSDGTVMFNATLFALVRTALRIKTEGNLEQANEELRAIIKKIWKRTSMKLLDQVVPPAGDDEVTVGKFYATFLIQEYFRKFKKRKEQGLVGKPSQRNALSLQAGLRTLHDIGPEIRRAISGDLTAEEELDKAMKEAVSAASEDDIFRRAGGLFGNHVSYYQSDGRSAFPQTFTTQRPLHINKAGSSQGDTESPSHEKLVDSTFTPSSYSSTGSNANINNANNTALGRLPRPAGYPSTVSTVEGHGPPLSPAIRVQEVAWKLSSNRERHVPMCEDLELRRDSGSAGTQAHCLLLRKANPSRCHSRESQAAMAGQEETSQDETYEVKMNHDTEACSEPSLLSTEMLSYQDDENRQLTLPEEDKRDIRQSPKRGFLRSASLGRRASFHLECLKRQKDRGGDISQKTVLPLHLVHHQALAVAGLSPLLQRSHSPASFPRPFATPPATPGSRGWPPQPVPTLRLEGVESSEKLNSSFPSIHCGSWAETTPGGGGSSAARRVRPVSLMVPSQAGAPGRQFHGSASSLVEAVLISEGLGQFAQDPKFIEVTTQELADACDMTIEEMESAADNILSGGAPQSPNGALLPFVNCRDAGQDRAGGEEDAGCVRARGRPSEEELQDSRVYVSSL", "assay": "Antagonist activity against L-type calcium channel subunit alpha-1C assessed as inactivation of channel current at 0.1 uM by cell based patch clamp assay"}, "[4]": {"target": "Voltage-dependent T-type calcium channel subunit alpha-1H (Homo sapiens) (UniProt O95180)", "assay": "Antagonist activity against T-type calcium channel subunit alpha-1H assessed as inactivation of channel current at 1 uM by cell based patch clamp assay", "format": "functional"}, "[5]": {"target": "Voltage-dependent T-type calcium channel subunit alpha-1H (Homo sapiens) (UniProt O95180)", "assay": "Antagonist activity against T-type calcium channel subunit alpha-1H assessed as inactivation of channel current at 0.3 uM by cell based patch clamp assay", "format": "functional"}, "[6]": {"target": "Voltage-dependent L-type calcium channel subunit alpha-1C (Homo sapiens) (UniProt Q13936)", "assay": "Antagonist activity against L-type calcium channel subunit alpha-1C assessed as inactivation of channel current at 0.3 uM by cell based patch clamp assay"}, "[7]": {"target": "Voltage-dependent T-type calcium channel subunit alpha-1H (Homo sapiens) (UniProt O95180)", "assay": "Antagonist activity against T-type calcium channel subunit alpha-1H assessed as inactivation of channel current at 3 uM by cell based patch clamp assay", "format": "functional"}, "[8]": {"target": "Voltage-dependent L-type calcium channel subunit alpha-1C (Homo sapiens) (UniProt Q13936)", "assay": "Antagonist activity against L-type calcium channel subunit alpha-1C assessed as inactivation of channel current at 3 uM by cell based patch clamp assay"}, "[9]": {"target": "Voltage-dependent T-type calcium channel subunit alpha-1H (Homo sapiens) (UniProt O95180)", "assay": "Antagonist activity against T-type calcium channel subunit alpha-1H assessed as inactivation of channel current at 0.1 uM by cell based patch clamp assay", "format": "functional"}, "[10]": {"target": "Voltage-dependent L-type calcium channel subunit alpha-1C (Homo sapiens) (UniProt Q13936)", "assay": "Antagonist activity against L-type calcium channel subunit alpha-1C assessed as inactivation of channel current at 10 uM by cell based patch clamp assay"}}, "note": "Calls of active or inactive are those of the source. The rule behind the calls is not given here."}
{"compound": "O=C1N(Cc2ccc(Cl)cc2)CCC12CCN(C(c1ccc(F)cc1)c1ccc(F)cc1)CC2", "values": [{"measurement": "Ratio IC50", "setting": "[1]", "result": 10}, {"measurement": "inhibition", "setting": "[2]", "result": 58, "unit": "%"}, {"measurement": "inhibition", "setting": "[3]", "result": 31, "unit": "%"}]}
{"compound": "O=C(c1ccc(F)cc1)N1CCC2(CC1)CCN(Cc1ccc(Cl)cc1)C2=O", "values": [{"measurement": "inhibition", "setting": "[4]", "result": "< 20", "unit": "%"}]}
{"compound": "CC(C)(C)CCN1CCC2(CCN(C(c3ccc(F)cc3)c3ccc(F)cc3)CC2)C1=O", "values": [{"measurement": "inhibition", "setting": "[5]", "result": 44, "unit": "%"}, {"measurement": "inhibition", "setting": "[6]", "result": 60, "unit": "%"}]}
{"compound": "O=C1N(CCc2ccc(Cl)cc2)CCC12CCN(C(c1ccc(F)cc1)c1ccc(F)cc1)CC2", "values": [{"measurement": "inhibition", "setting": "[2]", "result": 30, "unit": "%"}]}
{"compound": "Fc1ccc(C(c2ccc(F)cc2)N2CCC3(CCN(Cc4ccc(Cl)cc4)C3)CC2)cc1", "values": [{"measurement": "inhibition", "setting": "[4]", "result": 66, "unit": "%"}]}
{"compound": "O=C1N(Cc2ccc(Cl)cc2)CCC12CCNCC2", "values": [{"measurement": "inhibition", "setting": "[7]", "result": "< 20", "unit": "%"}]}
{"compound": "COCCN1CCC2(CCN(C(c3ccc(F)cc3)c3ccc(F)cc3)CC2)C1=O", "values": [{"measurement": "inhibition", "setting": "[4]", "result": 28, "unit": "%"}]}
{"compound": "O=C1NCCC12CCN(C(c1ccc(F)cc1)c1ccc(F)cc1)CC2", "values": [{"measurement": "inhibition", "setting": "[7]", "result": "< 20", "unit": "%"}, {"measurement": "inhibition", "setting": "[4]", "result": "inactive"}]}
{"compound": "CCOc1ccccc1CN1CCC2(CC1)CCN(Cc1ccc(Cl)cc1)C2=O", "values": [{"measurement": "inhibition", "setting": "[7]", "result": 67, "unit": "%"}]}
{"compound": "CC(C)N1CCC2(CCN(C(c3ccc(F)cc3)c3ccc(F)cc3)CC2)C1=O", "values": [{"measurement": "inhibition", "setting": "[7]", "result": 57, "unit": "%"}, {"measurement": "inhibition", "setting": "[8]", "result": 52, "unit": "%"}]}
{"compound": "CC(C)OCCCN1CCC2(CCN(C(c3ccc(F)cc3)c3ccc(F)cc3)CC2)C1=O", "values": [{"measurement": "inhibition", "setting": "[4]", "result": 76, "unit": "%"}, {"measurement": "inhibition", "setting": "[8]", "result": 56, "unit": "%"}]}
{"compound": "O=C1N(Cc2ccc(Cl)cc2)CCC12CCN(S(=O)(=O)c1ccc(F)cc1)CC2", "values": [{"measurement": "inhibition", "setting": "[7]", "result": 45, "unit": "%"}, {"measurement": "inhibition", "setting": "[8]", "result": 54, "unit": "%"}]}
{"compound": "O=C1N(Cc2cccc(Cl)c2)CCC12CCN(C(c1ccc(F)cc1)c1ccc(F)cc1)CC2", "values": [{"measurement": "inhibition", "setting": "[2]", "result": "< 20", "unit": "%"}, {"measurement": "inhibition", "setting": "[5]", "result": 91, "unit": "%"}]}
{"compound": "O=C1CC2(CCN(C(c3ccc(F)cc3)c3ccc(F)cc3)CC2)CN1Cc1ccc(Cl)cc1", "values": [{"measurement": "inhibition", "setting": "[4]", "result": 68, "unit": "%"}, {"measurement": "inhibition", "setting": "[3]", "result": 42, "unit": "%"}]}
{"compound": "O=C1N(Cc2ccc(Cl)cc2)CCC12CCN(Cc1cccc(Oc3ccccc3)c1)CC2", "values": [{"measurement": "inhibition", "setting": "[5]", "result": 56, "unit": "%"}]}
{"compound": "O=C1N(Cc2ccc(Cl)cc2)CCC12CCN(Cc1ccc(F)cc1)CC2", "values": [{"measurement": "inhibition", "setting": "[7]", "result": 65, "unit": "%"}, {"measurement": "inhibition", "setting": "[8]", "result": 59, "unit": "%"}]}
{"compound": "COc1cccc(CN2CCC3(CCN(C(c4ccc(F)cc4)c4ccc(F)cc4)CC3)C2=O)c1", "values": [{"measurement": "Ratio IC50", "setting": "[1]", "result": 8}, {"measurement": "inhibition", "setting": "[2]", "result": 52, "unit": "%"}, {"measurement": "inhibition", "setting": "[6]", "result": 67, "unit": "%"}]}
{"compound": "CC(C)C(C(C)C)N1CCC2(CCN(Cc3ccc(Cl)cc3)C2=O)CC1", "values": [{"measurement": "inhibition", "setting": "[5]", "result": 40, "unit": "%"}]}
{"compound": "O=C1N(Cc2ccc(Cl)cc2)CCC12CCN(CC(c1ccc(F)cc1)c1ccc(F)cc1)CC2", "values": [{"measurement": "inhibition", "setting": "[9]", "result": 59, "unit": "%"}]}
{"compound": "COCCCN1CCC2(CCN(C(c3ccc(F)cc3)c3ccc(F)cc3)CC2)C1=O", "values": [{"measurement": "inhibition", "setting": "[4]", "result": 44, "unit": "%"}, {"measurement": "inhibition", "setting": "[10]", "result": 58, "unit": "%"}]}
{"compound": "O=C(c1ccc(Cl)cc1)N1CCC2(CCN(C(c3ccc(F)cc3)c3ccc(F)cc3)CC2)C1", "values": [{"measurement": "inhibition", "setting": "[5]", "result": 59, "unit": "%"}, {"measurement": "inhibition", "setting": "[3]", "result": 44, "unit": "%"}]}
{"compound": "O=C1N(CCCN2CCOCC2)CCC12CCN(C(c1ccc(F)cc1)c1ccc(F)cc1)CC2", "values": [{"measurement": "inhibition", "setting": "[4]", "result": 35, "unit": "%"}]}
